In article PMC10636063, “Progesterone activation of β1-containing BK channels involves two binding sites” (Nature Communications, 2023):
Values joined by “and” are separate entries in the source; they are usually repeats but may differ in a detail not shown here. Equal values may be shown once.

Legend:
[1] = target: T1, smooth muscle myocyte BK channels (KCNMB1-/-) (Mus musculus, UniProt Q08460); experiment: Inside-out patch-clamp of MCA smooth muscle myocytes, KCNMB1-/- mice; format: cell-based; conditions: for normalized NPo, time course Fig 5C: beta1KO, PROG 10uM
T1 construct: endogenous in cells; host or cells: freshly isolated middle cerebral artery smooth muscle cells of KCNMB1-/- mice, inside-out patches
T1 sequence (Q08460 whole entry): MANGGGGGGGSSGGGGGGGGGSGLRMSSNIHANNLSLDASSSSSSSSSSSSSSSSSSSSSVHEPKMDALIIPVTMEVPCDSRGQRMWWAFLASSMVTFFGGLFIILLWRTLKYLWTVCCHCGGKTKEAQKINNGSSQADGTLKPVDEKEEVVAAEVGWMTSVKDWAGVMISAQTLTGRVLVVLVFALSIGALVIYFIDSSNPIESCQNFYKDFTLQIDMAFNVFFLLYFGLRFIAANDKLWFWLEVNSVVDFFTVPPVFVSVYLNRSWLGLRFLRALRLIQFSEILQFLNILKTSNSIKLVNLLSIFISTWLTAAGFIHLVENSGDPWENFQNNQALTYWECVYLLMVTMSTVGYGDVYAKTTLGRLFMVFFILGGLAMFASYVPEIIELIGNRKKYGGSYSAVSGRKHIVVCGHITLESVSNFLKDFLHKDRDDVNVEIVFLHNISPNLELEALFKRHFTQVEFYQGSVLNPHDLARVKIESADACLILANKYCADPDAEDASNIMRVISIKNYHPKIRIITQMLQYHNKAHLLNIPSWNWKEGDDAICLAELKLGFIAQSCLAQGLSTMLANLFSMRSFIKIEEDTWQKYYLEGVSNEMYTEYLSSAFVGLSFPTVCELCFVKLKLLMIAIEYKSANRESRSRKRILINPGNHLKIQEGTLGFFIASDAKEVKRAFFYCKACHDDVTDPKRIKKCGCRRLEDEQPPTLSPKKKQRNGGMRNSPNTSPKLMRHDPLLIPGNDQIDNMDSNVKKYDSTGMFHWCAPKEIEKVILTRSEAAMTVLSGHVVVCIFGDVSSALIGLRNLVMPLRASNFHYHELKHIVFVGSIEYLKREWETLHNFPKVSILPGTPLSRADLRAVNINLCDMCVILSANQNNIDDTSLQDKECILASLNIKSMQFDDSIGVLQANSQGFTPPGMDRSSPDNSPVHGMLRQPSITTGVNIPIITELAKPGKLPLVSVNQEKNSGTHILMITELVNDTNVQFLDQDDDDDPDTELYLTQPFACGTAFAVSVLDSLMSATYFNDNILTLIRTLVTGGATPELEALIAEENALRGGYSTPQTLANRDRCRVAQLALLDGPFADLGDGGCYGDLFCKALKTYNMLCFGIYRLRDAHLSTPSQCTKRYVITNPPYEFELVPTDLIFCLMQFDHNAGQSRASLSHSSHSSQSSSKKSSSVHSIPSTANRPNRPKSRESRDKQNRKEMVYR
Protocol: Ionic currents were recorded from excised, inside-out (I/O) patches. […] In all experiments, free [Ca^2+] in solution was adjusted to the desired value by adding the appropriate amount of Ca^2+ from a 1 mM CaCl2 stock. An agar bridge with Cl^- as main anion was used as ground electrode. Solutions were applied onto the cytosolic side of I/O patches using an automated, pressurized system (Octaflow; […] Ionic currents at single channel resolution were recorded using an EPC8 amplifier (HEKA) at 1 kHz. Data were digitized at 5 kHz using a Digidata […] A/D converter and pCLAMP 8.0 (Molecular Devices); n = 5/group. […] Drug-induced NPo changes were determined by comparing baseline NPo (i.e., NPo with the patch/cell perfused with bath solution) to the NPo from the same patch/cell exposed to the agent under study (DMSO/PROG/oxime) dissolved in bath solution.

[2] = tested on: BK β4 subunit (KCNMB4 product); experiment: Thermal unfolding (MST) of purified wt β4; format: binding; design: delta (Δ) of onset to inflection point: unit not given here
Text: BK channel-forming slo1 cDNA (cbv1 isoform; AY330293) was cloned from rat cerebral artery SM cells, and inserted into pcDNA3.1 vector as described. BK β1 cDNA (KCNMB1 product; NP_011452; FJ154955) were isolated from rat cerebral artery SM cells and cloned as described. β4 cDNA (KCNMB4; NP_055320; AY028605) were generously provided by Dr. Ligia Toro. CHO cells were transiently transfected with cbv1 ± β1-, or β4-carrying pcDNA3.1 using X-tremeGENE HP (Sigma-Aldrich). Mutations to β1/4 cDNAs were conducted by Genscript, with sequences being confirmed to be >99% identical to KCNMB1 product; NP_011452 or β4 KCNMB4; NP_055320; respectively. β1/4 and mutant constructs were flag-tagged (DYKDDDDK-tag) by Genscript services for subsequent immunoprecipitation and use in microscale thermophoresis studies.
Wt β1, wt β4 and mutant constructs were purified by immunoprecipitation using Dynabeads Protein G Kit (10007D by Invitrogen) and following the manufacturer’s instructions. […] The unfolding profile of a protein is a plot of its fluorescence signal against temperature. […] During the heating process, fluorescence is recorded at 330 and 350 nm. The resulting fluorescence ratio change is then analyzed for onset and inflection points. The temperature of onset and inflection is determined using built-in analysis function in Nanotemper PR.therm-control software. […]

SMILES: CC(=O)[C@H]1CC[C@H]2[C@@H]3CCC4=CC(=O)CC[C@]4(C)[C@H]3CC[C@]12C [PROG, Progesterone]
- action on BK channel activity ([1]; 10 µM, I/O patches, 30 μM free Ca2+): consistently resistant to PROG
- normalized NPo, scatter Fig 5D ([1]; KO, PROG, single cells (same values as 5C time 13)): 1.285 and 0.9695 and 0.9053 and 0.9515 and 1.0301
- normalized NPo, time course Fig 5C ([1]; time 1 (normalisation reference), columns = cell number): 1
- normalized NPo, time course Fig 5C ([1]; time 2): 0.9681 and 1.062 and 1.027 and 1.211 and 0.9954
- normalized NPo, time course Fig 5C ([1]; time 3): 0.9157 and 1.074 and 1.107 and 1.076 and 1.008
- normalized NPo, time course Fig 5C ([1]; time 4): 1.013 and 0.9333 and 1.023 and 1.02 and 0.9985
- normalized NPo, time course Fig 5C ([1]; time 5): 0.8445 and 0.9395 and 0.9666 and 0.9766 and 1.044
- normalized NPo, time course Fig 5C ([1]; time 6): 1.335 and 0.9407 and 1.013 and 1.133 and 0.9069
- normalized NPo, time course Fig 5C ([1]; time 7): 1.401 and 0.9722 and 0.9298 and 1.141 and 1.008
- normalized NPo, time course Fig 5C ([1]; time 8): 0.9307 and 0.9753 and 1 and 1.059 and 0.9374
- normalized NPo, time course Fig 5C ([1]; time 9): 0.8843 and 0.9534 and 0.8763 and 1.168 and 1.029
- normalized NPo, time course Fig 5C ([1]; time 10): 0.9107 and 1 and 0.9833 and 1.22 and 0.9731
- normalized NPo, time course Fig 5C ([1]; time 11): 0.9343 and 1.019 and 1.187 and 1.237 and 0.9145
- normalized NPo, time course Fig 5C ([1]; time 13): 0.9053 and 0.9515 and 1.0301 and 1.285 and 0.9695
- normalized NPo, time course Fig 5C ([1]; time 14): 0.872 and 0.9873 and 0.9766 and 1.12 and 1.0626
- normalized NPo, time course Fig 5C ([1]; time 15): 0.8834 and 0.9392 and 0.9933 and 1.107 and 1.032
- normalized NPo, time course Fig 5C ([1]; time 16): 0.8292 and 1.033 and 0.8763 and 1.072 and 0.8061
- normalized NPo, time course Fig 5C ([1]; time 17): 0.881 and 1.326 and 0.8485 and 1.237 and 0.7481
- normalized NPo, time course Fig 5C ([1]; time 18): 0.8971 and 1.152 and 0.7759 and 1.189 and 1.06
- normalized NPo, time course Fig 5C ([1]; time 19): 0.8576 and 1.179 and 0.7388 and 1.176 and 0.8214
- normalized NPo, time course Fig 5C ([1]; time 20): 0.8348 and 0.9401 and 0.8127 and 1.189 and 0.8275
- normalized NPo, time course Fig 5C ([1]; time 21): 0.9702 and 1.112 and 0.8729 and 1.098 and 1.041
- normalized NPo, time course Fig 5C ([1]; time 22): 0.9222 and 1.09 and 0.9773 and 1.02
- delta (Δ) of onset to inflection point ([2]; 10 μM PROG, individual records (Fig 1C)): 24.8 and 1.81 and 4.188 and 7.2 and 3.495 and 5.4
- effect on thermal unfolding / binding ([2]; 4–10 μM): exerted a similar effect on the thermal unfolding of β4
